The test system of data set [1] is Mastomys coucha. The experiment in a line: In vivo methemoglobin (MetHb) toxicity in Mastomys coucha. Particulars: for (%) Methemoglobin (MetHb) Increase: Mastomys coucha, blood 4 h after administration. The protocol: The protocol used is as follows: In vivo MetHb-inducing properties estimation was carried out in Mastomys coucha, a rapid rodent animal model using protocols reported earlier (Srivastava, P., Singh, S., Jain, G. K., Puri, S. K., Pandey, V. C. Ecotox. Environ. Safety. 2000, 45, 236-239). Briefly; six animals per group of both sexes, 2-3 months old and body weight between 40-50 g were used for the present investigation. Drug was administered intraperitoneally (ip) or orally at various dosage for single day/three consecutive days. Primaquine is used as the standard drug for the test. It is known that primaquine is readily absorbed from the gastro-intestinal tract and peak plasma concentration reaches within 3 h and falls within an apparent elimination half time of 6 h. Keeping the above pharmacokinetic profile in mind, the blood samples were collected after 4 h of drug administration and % increase in MetHb was calculated.

For data set [2], the system named is P. falciparum. The experiment in a line: In vitro antimalarial activity against P. falciparum. It counts as cell-based. The protocol: Protocol: Different drug dilutions [test compounds and chloroquine (positive control)] were prepared in complete RPMI (medium RPMI 1640+10% AB^+ human serum; CRPMI). Fifty μL of each dilution was transferred to the respective well of a microtiter plate in triplicates. Parasitized erythrocytes (PE; mainly rings; 4% parasitaemia; 5% hematokrit) were added to each well. Volume in each well was made up to 200 μL with CRPMI. The plates were incubated at 37° C. in a candle jar. After 24-48 h of incubation, thin smears from each well were made and stained with Giemsa. The number of PE/10,000 cells was counted. […] Using non-linear regression analysis, the IC50 of the test compounds was then calculated.

For data set [3] the following is noted: cited from earlier work.
Data set [4] relates to Plasmodium berghei (sensitive strain). The experiment in a line: Blood schizontocidal activity against Plasmodium berghei infection in mice. It counts as in vivo. Particulars: P. berghei infected mice, oral, 4 doses D0 to D+3, suppressive = parasitaemia suppressed on D+4 and D+7, curative = cleared up to 28 days. The protocol:
(§1) Blood schizontocidal activity evaluation of potential antimalarial compounds against Plasmodium berghei (sensitive strain) and P. yoelii nigeriensis (resistant strain) infection in mice.
(§2) Test Procedure: On day ‘0’, groups of 6 mice each were inoculated, intraperitoneally, with 1×10^7 infected-erythrocytes, from a donor mouse. Four hours later, mice were administered test compounds/chloroquine primaquine/vehicle, orally. A total of 4 doses were given on days D‘0’, D+1, D+2, and D+3. The tail blood smears were made on day D+4 and D+7, stained with Geimsa, and examined microscopically. […] The results of blood-schizontocidal activities for the synthesized compounds are given below in Table 1.

For data set [5], the system named is P. yoelii nigeriensis (multidrug resistant strain). The data set can be described thus: Blood schizontocidal activity against chloroquine and mefloquine drug-resistant P. yoelii nigeriensis in mice. Particulars: oral, 4 doses, listed as R=H, R1=H, R2=C(CH3)3, R3=H. It counts as in vivo. The protocol:
as §1, §2

Data set [6] relates to Swiss mice. The data set can be described thus: Acute toxicity studies in Swiss mice. It counts as in vivo. As for the experimental part:
A group of ten mice with equal ratio of male and female were subjected to a single dose of 5, 50, 150 and 450 mg/kg.

In brackets after ≈: the same amount, converted by molar mass. Entries after “also recorded” stand apart in the source; their conditions may differ.

As for `COc1cc(NC(C)CCCN)c2ncccc2c1` (stereo not shown) [Primaquine, N^8-(4-amino-1-methylbutyl)-6-methoxy-8-quinolinamine, reference compound], the “(%) Methemoglobin (MetHb) Increase” value in data set [1] (15 mg/kg/day x 4 days (ip)) amounted to 3.38%; in data set [1] (15 mg/kg/day x 4 days (oral)) it was 3.57%; in data set [1] (50 mg/kg (single dose) (ip)) it was 3.38%; in data set [1] (50 mg/kg (single dose) (oral)), 2.58%. The “P. falciparum (IC50)” value in data set [2] (parasitized erythrocytes, 24-48 h incubation) is reported as “Not active”. Further, in data set [3] (absorbed from the gastro-intestinal tract, known property), the “time to peak plasma concentration” value is at most 3 h. Further, the half-life in data set [3] (known property of the drug) was 4 to 6 h. Besides, the “apparent elimination half time” value in data set [3] (known property) is reported as 6 h.
Take `COc1cc(NCCC(C)CN)c2nc(C(C)(C)C)cc(C)c2c1OC` (stereo not shown) [Example 56, N^8-(4-Amino-3-methylbutyl)-2-tert-butyl-5,6-methoxy-4-methyl-8-quinolinamine]: the “Biological activity at (mg/kg/days × 4)” value in data set [4] is “Curative at 100 mg/kg”.
Same read-out and setting: in the case of `COc1cc(NC(C)CCCN)c2nc(C(C)C)ccc2c1C(C)C` (stereo not shown) [Example 49, N^8-(4-Amino-1-methylbutyl)-2,5-diisopropyl-6-methoxy-8-quinolinamine] it was “Inactive at 100 mg/kg”; in that of `COc1cc(NC(C)CCCNC(=O)[C@@H](N)CCCN)c2nc(C(C)(C)C)ccc2c1` (stereo partly drawn) [Example 61, N^1-[4-(2-tert-Butyl-6-methoxy-8-quinolylamino)pentyl]-(2S)-2,5-diaminopentamide], “Curative at 100 mg/kg”.
As for `CCCCCCCCOc1c(OC)cc(NC(C)CCCN)c2nc(C(C)(C)C)cc(CC)c12` (stereo not shown) [Example 55, N^8-(4-Amino-1-methylbutyl)-2-tert-butyl-4-ethyl-6-methoxy-5-octoxy-8-quinolin-amine], the “Biological activity at (mg/kg/days × 4)” value in data set [4] is given as “Curative at 100 mg/kg”.
With `COc1cc(NC(C)CCCNC(=O)[C@@H](N)CCCCN)c2nc(C(C)(C)C)ccc2c1` (stereo partly drawn) [Example 63, N^1-[4-(2-tert-Butyl-6-methoxy-8-quinolylamino)pentyl]-(2S)-2-6-diaminohexanamide], the “Biological activity at (mg/kg/days × 4)” value in data set [4] (listed as 17) was “suppressive activity at 10 mg/kg”; in data set [4] (listed as R=H, R1=H, R2=C(CH3)3, R3=S-(Lys)) it was “Suppressive at 10 mg/kg”.
For `COc1cc(NC(C)CCCN)c2nc(C34CC5CC(CC(C5)C3)C4)ccc2c1` (stereo not shown) [Example 45, N^8-[4-Amino-1-methylbutyl)-2-adamantyl-6-methoxy-8-quinolinamine], the “Biological activity at (mg/kg/days × 4)” value in data set [4] is “Inactive at 100 mg/kg”.
Take `COc1cc(NC(C)CCCN)c2nc(C(C)(C)C)ccc2c1` (stereo not shown) [Example 43, N^8-(4-Amino-1-methylbutyl)-2-tert-butyl-6-methoxy-8-quinolinamine]: the “Biological activity at (mg/kg/days × 4)” value in data set [4] (listed as 1) was “curative at a dose of 10 mg/kg”; in data set [4] (listed as R=H, R1=H, R2=C(CH3)3, R3=H) it was “Curative at 10 mg/kg”; in data set [5] it was “Curative at 100 mg/kg; also recorded: Curative at 50 mg/kg; also recorded: Curative at 25 mg/kg; also recorded: Suppressive at 10 mg/kg”. Further, in data set [6] (single dose), the “acute toxicity (result in words)” value was “completely safe at 50 mg/kg”. Besides, the “% Mortality Female” value in data set [6] (single dose 5 mg/kg), in data set [6] (single dose 50 mg/kg), in data set [6] (single dose 150 mg/kg) and in data set [6] (single dose 450 mg/kg) was 0% throughout. Besides, the “% Mortality Male” value in data set [6] (single dose 5 mg/kg), in data set [6] (single dose 50 mg/kg), in data set [6] (single dose 150 mg/kg) and in data set [6] (single dose 450 mg/kg) was 0% in each case. The “% Mortality Total” value in data set [6] (single dose 5 mg/kg), in data set [6] (single dose 50 mg/kg), in data set [6] (single dose 150 mg/kg) and in data set [6] (single dose 450 mg/kg) was 0% throughout. The “(%) Methemoglobin (MetHb) Increase” value in data set [1] (15 mg/kg/day x 4 days (ip)), in data set [1] (15 mg/kg/day x 4 days (oral)), in data set [1] (50 mg/kg (single dose) (ip)) and in data set [1] (50 mg/kg (single dose) (oral)) was 0% throughout. Further, in data set [1] (in vivo), the “methemoglobin (MetHb) toxicity (result in words)” value is “completely devoid of this toxic manifestation in vivo”. Besides, the IC50 in data set [2] (Plasmodium falciparum, Erythrocyte, read-out: P. falciparum (IC50)) was 0.0391 µg/mL (≈ 0.124 µM).
On to `COc1cc(NC(C)CCCN)c2nc(C3CCCC3)ccc2c1C1CCCC1` (stereo not shown) [Example 48, N^8-(4-Amino-1-methylbutyl)-2,5-dicyclopentyl-6-methoxy-8-quinolinamine], for which the “Biological activity at (mg/kg/days × 4)” value in data set [4] is listed as “Inactive at 100 mg/kg”.
For `COc1cc(NC(C)CCCN)c2ncccc2c1C1CCCC1` (stereo not shown) [Example 44, N^8-(4-Amino-1-methylbutyl)-5-cyclopentyl-6-methoxy-8-quinolinamine], the “Biological activity at (mg/kg/days × 4)” value in data set [4] is “Inactive at 100 mg/kg”.
Consider `CCCCCOc1c(OC)cc(NC(C)CCCN)c2nc(C(C)(C)C)cc(CC)c12` (stereo not shown) [Example 54, N^8-(4-Amino-1-methylbutyl)-2-tert-butyl-4-ethyl-6-methoxy-5-pentoxy-8-quinolin-amine], for which the “Biological activity at (mg/kg/days × 4)” value in data set [4] is reported as “Curative at 100 mg/kg”.
Consider `COc1cc(NC(C)CCCN)c2ncccc2c1C1CCCCC1` (stereo not shown) [Example 47, N^8-(4-Amino-1-methylbutyl)-5-cyclohexyl-6-methoxy-8-quinolinamine], for which the “Biological activity at (mg/kg/days × 4)” value in data set [4] is recorded as “Inactive at 100 mg/kg”.
Still for that read-out and setting: in the case of `COc1cc(NC(C)CCCN)c2ncccc2c1C(C)C` (stereo not shown) [Example 46, N^8-(4-Amino-1-methylbutyl)-5-isopropyl-6-methoxy-8-quinolinamine] it was “Inactive at 100 mg/kg”.
`COc1cc(NC(C)CCCNC(=O)[C@H](C)N)c2nc(C(C)(C)C)ccc2c1` (stereo partly drawn) [Example 64, N^1-[4-(2-tert-Butyl-6-methoxy-8-quinolylamino)pentyl]-(2S)-2-aminopropanamide]: the “Biological activity at (mg/kg/days × 4)” value in data set [4] (listed as 18) is on record as “suppressive activity at 10 mg/kg”; in data set [4] (listed as R=H, R1=H, R2=C(CH3)3, R3=S-(Ala)) it was “Suppressive at 10 mg/kg”.
For `COc1cc(NC(C)CCCN)c2nc(C3CCCCC3)ccc2c1C1CCCCC1` (stereo not shown) [Example 50, N^8-(4-Amino-1-methylbutyl)-2,5-dicyclohexyl-6-methoxy-8-quinolinamine], the “Biological activity at (mg/kg/days × 4)” value in data set [4] is reported as “Inactive at 100 mg/kg”.
Take `COc1cc(NC(C)CCCN)c2nc(C(C)(C)C)ccc2c1OC` (stereo not shown) [Example 51, N^8-(4-Amino-1-methylbutyl)-2-tert-butyl-5,6-dimethoxy-8-quinolinamine]: in data set [4], the “Biological activity at (mg/kg/days × 4)” value is recorded as “Inactive at 100 mg/kg”.
